{"source": "patent US20190022117A1", "about": "“COMBINATION THERAPY” (NuCana plc, priority 2015, published 2019)", "key": {"[1]": {"test_system": "SKOV3 cells", "assay": "Sulforhodamine B (SRB) assay, single agent", "assay_type": "cell-based", "settings": "24 hours exposure, SRB assay on day 4", "protocol": "SKOV3 cells were purchased from American Type Culture Collection (ATCC). They were cultured at 37° C. and 5% CO2 in Gibco™ RMPI Medium 1640+GlutaMAX™-I (Life Technologies; 61870-010) with 10% Gibco™ FBS (Life Technologies; 10270-106) and 1% Gibco™ Penicillin-Streptomycin (Life Technologies; Ser. No. 15/140,122), known as complete medium, in a cell culture flask. Cisplatin was purchased from TEVA UK Limited (PL 00289/1146). Fluvastatin and Sulforaphane were both purchased from Merck Millipore Corporation (Catalogue numbers 344096 and 574215 respectively). (S)-NUC-1031 was provided by NuCana® Ltd.\nSKOV3 cells were plated at 250 cells in 200 μl per well in the middle 60 wells of Costar® 3596 96-well plates, with the outer 36 wells filled with 200 μl PBS each. The cells were allowed to grow in complete medium for 48 hours before different drug compounds were added in. For single agent, cisplatin, (S)-NUC-1031, fluvastatin and sulforaphane in complete medium at 10 different concentrations were added into the middle 60 wells (Day 0). Each concentration was loaded in sextuplicate. Cells were exposed to the compounds for 24 hours and the compounds were replaced by pure complete medium. The experiment with fluvastatin was repeated with 4-day exposure instead of 24 hours. The plates were fixed with 50 μl 25% TCA solution at 4° C. for 60 minutes on day 4 after the drug compounds were added for Sulforhodamine B assay (see below).\nAfter adding the TCA solution, the plates were washed under running tap water 10 times and were allowed to dry in the oven at 50° C. The cells were then stained with 50 μl SRB dye, and the dye was washed off with 1% glacial acetic acid for 4 times 30 minutes after SRB addition. The plates were then dried in the oven. SRB dye was allowed to dissolve in 150 μl 10 mM Tris buffer solution for 60 minutes on a rocker. The plates were read on Biohit BP800 Microplate Reader (Biohit Healthcare) and the absorbance was measured at 540 nm. […]"}, "[2]": {"assay": "ProGem1 clinical study (NUC-1031 alone), intracellular dFdCTP pharmacokinetics", "assay_type": "in vivo, human", "settings": "ProGem1 (n = 67), NUC-1031 as a single agent; no normalisation", "text": "ProGem1 was a first-time-in-human (FTIH), phase I, open label, two stage study to investigate the safety, tolerability, clinical efficacy, pharmacokinetics (PK) and pharmacodynamics (PD) of NUC-1031 given in two parallel dosing schedules in subjects with advanced solid malignancies (EudraCT Number: 2011-005232-26). Subjects had the following tumour types at study entry: colorectal cancer (7 subjects), unknown primary (3), ovarian cancer (12), breast cancer (4), pancreatic cancer (9), cholangiocarcinoma (7), endometrial cancer (3), cervical cancer (2), lung cancer (7), mesothelioma (3), oesophageal cancer (3), cancer of the fallopian tube (1), trophoblast (1), renal cancer (1), gastric cancer (1), anal cancer (1), cancer of the thymus (1) and osteosarcoma (1)."}}}
{"smiles": "C[C@H](NP(=O)(OC[C@H]1O[C@@H](n2ccc(N)nc2=O)C(F)(F)[C@H]1O)Oc1ccccc1)C(=O)OCc1ccccc1", "note": "(stereo partly drawn) [NUC-1031, 2′-Deoxy-2′,2′-difluoro-D-cytidine-5′-O-[phenyl (benzoxy-L-alaninyl)] phosphate]", "values": [{"measurement": "IC50", "setting": "[1]", "result": "could not be calculated due to unobservable inhibitory effects"}, {"measurement": "Mean AUC0-24, intracellular dFdCTP", "setting": "[2]", "result": 1379.0, "unit": "pmol/million cells · hr"}, {"measurement": "Mean Cmax, intracellular dFdCTP", "setting": "[2]", "result": 391.8, "unit": "pmol/million cells"}]}
